Columns and labels:
[1] = biological target: CYP3A4 (Homo sapiens (Human), UniProt P08684); assay: Time-dependent inhibition of CYP3A4 (TDI assay, human liver microsomes); format: in vitro ADME; settings: for CYP3A4 TDI % @ 10 μM: human liver microsomes, Midazolam substrate, 30 min with NADPH vs 0 min; for time-dependent inhibition on CYP3A4 (conclusion): conclusion drawn from Table 3, 10 μM
Procedure, shortened: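 Human liver microsomes (final 1 mg/mL) preincubated with test compound for 0 min without NADPH or 30 min with NADPH in 100 mM K-phosphate pH 7.4, 37 °C. Aliquot then diluted into midazolam substrate plus NADPH and incubated 15 min at 37 °C. Quenched with acetonitrile; metabolite read by LC-MS/MS.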

[2] = biological target: Autotaxin (ATX) (Homo sapiens (Human), UniProt Q13822); assay: ATX bioactivity assay (Amplex Red / choline oxidase / HRP fluorescence, LPC 16:0 substrate); format: biochemical; settings: 30 min room temperature
[3] = system: LPA18:2 in mouse plasma; assay: Inhibition of LPA in mouse plasma (plasma LPA18:2 assay, LC-MS/MS); format: biochemical, CD1 mice; settings: fresh CD1 mouse plasma, LPA18:2, 37° C. for 120 min

CYP3A4, sequence (P08684 whole entry): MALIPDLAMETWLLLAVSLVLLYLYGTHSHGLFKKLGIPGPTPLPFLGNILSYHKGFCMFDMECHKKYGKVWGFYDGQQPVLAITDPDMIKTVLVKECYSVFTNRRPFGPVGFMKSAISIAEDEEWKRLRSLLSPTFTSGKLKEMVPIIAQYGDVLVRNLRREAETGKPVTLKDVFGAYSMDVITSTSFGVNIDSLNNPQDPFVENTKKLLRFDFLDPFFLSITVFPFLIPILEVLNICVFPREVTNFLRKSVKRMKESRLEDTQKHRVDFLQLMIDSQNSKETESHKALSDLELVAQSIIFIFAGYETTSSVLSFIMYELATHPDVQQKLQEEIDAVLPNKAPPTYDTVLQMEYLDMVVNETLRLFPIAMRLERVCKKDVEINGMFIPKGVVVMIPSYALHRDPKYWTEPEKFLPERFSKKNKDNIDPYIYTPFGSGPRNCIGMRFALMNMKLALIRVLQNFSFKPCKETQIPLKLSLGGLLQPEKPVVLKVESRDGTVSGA

Row | Structure (SMILES) | CYP3A4 TDI % @ 10 μM [1] [%] | time-dependent inhibition on CYP3A4 (conclusion) [1] | IC50 [2] [µM] | IC50 [3] [µM]
1 | CCc1oc2ccc(N3CCN(CC(=O)N4CC(O)C4)CC3)nc2c1N(CC)c1nc(-c2ccc(F)cc2)c(C#N)s1 [Compound S-0105CP, 2-(ethyl(2-ethyl-5-(4-(2-(3-hydroxyazetidin-1-yl)-2-oxoethyl)piperazin-1-yl)furo[3,2-b]pyridin-3-yl)amino)-4-(4-fluorophenyl)thiazole-5-carbonitrile] | 0 | no time-dependent inhibition on CYP3A4 | 0.049 | 0.111
2 | CCN(c1nc(-c2ccc(F)cc2)c(C#N)s1)c1c2nc(N3CCN(CC(=O)N4CC(O)C4)CC3)ccc2nn1CC [Compound S-0117, 2-(ethyl(2-ethyl-5-(4-(2-(3-hydroxyazetidin-1-yl)-2-oxoethyl)piperazin-1-yl)-2H-pyrazolo[4,3-b]pyridin-3-yl)amino)-4-(4-fluorophenyl)thiazole-5-carbonitrile] | 15.2 | no time-dependent inhibition on CYP3A4 | 0.012 | 0.038
3 | CCN(c1nc(-c2ccc(F)cc2)c(C#N)s1)c1c2cc(N3CCN(CC(=O)N4CC(O)C4)CC3)cc(F)c2nn1CC [Compound S-0122, 2-(ethyl(2-ethyl-7-fluoro-5-(4-(2-(3-hydroxyazetidin-1-yl)-2-oxoethyl)piperazin-1-yl)-2H-indazol-3-yl)amino)-4-(4-fluorophenyl)thiazole-5-carbonitrile] | 38.25 | weak time-dependent inhibition on CYP3A4 | 0.025 | 0.061
4 | CCN(c1nc(-c2ccc(F)cc2)c(C#N)s1)c1c2nc(N3CCN(CC(=O)N4CC(O)C4)CC3)cc(C)c2nn1CC [Compound S-0124, 2-(ethyl(2-ethyl-5-(4-(2-(3-hydroxyazetidin-1-yl)-2-oxoethyl)piperazin-1-yl)-7-methyl-2H-pyrazolo[4,3-b]pyridin-3-yl)amino)-4-(4-fluorophenyl) thiazole-5-carbonitrile] | 8.74 | no time-dependent inhibition on CYP3A4 | 0.024 | 0.096
5 | CCc1c(N(C)c2nc(-c3ccc(F)cc3)c(C#N)s2)c2nc(N3CCN(CC(=O)N4CC(O)C4)CC3)ccc2n1C [Compound S-0128, 2-((2-ethyl-5-(4-(2-(3-hydroxyazetidin-1-yl)-2-oxoethyl)piperazin-1-yl)-1-methyl-1H-pyrrolo[3,2-b]pyridin-3-yl)(methyl)amino)-4-(4-fluorophenyl)thiazole-5-carbonitrile] | 33.64 | weak time-dependent inhibition on CYP3A4 | 0.142 | 0.057
6 | CCc1sc2ccc(N3CCN(CC(=O)N4CC(O)C4)CC3)nc2c1N(C)c1nc(-c2ccc(F)cc2)c(C#N)s1 [Compound S-0129, 2-((2-ethyl-5-(4-(2-(3-hydroxyazetidin-1-yl)-2-oxoethyl)piperazin-1-yl)thieno[3,2-b]pyridin-3-yl)(methyl)amino)-4-(4-fluorophenyl)thiazole-5-carbonitrile] | 14.42 | no time-dependent inhibition on CYP3A4 | 0.264 | 0.268
